Laboratory results: patent US20250090699A1, “FAP TARGETING CYCLIC PEPTIDES AND CONJUGATES THEREOF” (Novartis AG, priority 2023, published 2025)
Structures can show the parent of a compound that is named as a salt. Starred links: 1 amine or outer side, 2 acyl side, 3 side chain; linkers in the order of their positions; H or OH if unused. Non-standard residues stand in square brackets, D forms with d. Residues, ends and D or L forms follow the SMILES beside them. Trp(7-OMe) = COc1cccc2c(C[C@H](N)C(=O)O)c[nH]c12; AEF = NCCOc1ccc(C[C@H](N)C(=O)O)cc1; X10 = O=C([C@H]1COCCN1[*:1])[*:2]; NMeCba = CN[C@@H](CC1CCC1)C(=O)O; NMeF = CN[C@@H](Cc1ccccc1)C(=O)O; d(αMeP) = C[C@]1(C(=O)O)CCCN1; Ahp(2) = CCCCC[C@H](N)C(=O)O; Cba = N[C@@H](CC1CCC1)C(=O)O; dPip = O=C(O)[C@H]1CCCCN1; dNMeA = CN[C@H](C)C(=O)O; Sar = CNCC(=O)O

Legend:
[1] = molecular target: T1, mouse FAP (Mus musculus, UniProt P97321); assay: Surface plasmon resonance (SPR) for peptide affinity, mouse FAP; assay type: binding
T1 construct: biotinylated His, Avi tag, mouse FAP (26-761, FAP-M82Q5); His; Avi tag (biotinylated); purchased AcroBiosystems FAP-M82Q5
T1 sequence (P97321 26-761): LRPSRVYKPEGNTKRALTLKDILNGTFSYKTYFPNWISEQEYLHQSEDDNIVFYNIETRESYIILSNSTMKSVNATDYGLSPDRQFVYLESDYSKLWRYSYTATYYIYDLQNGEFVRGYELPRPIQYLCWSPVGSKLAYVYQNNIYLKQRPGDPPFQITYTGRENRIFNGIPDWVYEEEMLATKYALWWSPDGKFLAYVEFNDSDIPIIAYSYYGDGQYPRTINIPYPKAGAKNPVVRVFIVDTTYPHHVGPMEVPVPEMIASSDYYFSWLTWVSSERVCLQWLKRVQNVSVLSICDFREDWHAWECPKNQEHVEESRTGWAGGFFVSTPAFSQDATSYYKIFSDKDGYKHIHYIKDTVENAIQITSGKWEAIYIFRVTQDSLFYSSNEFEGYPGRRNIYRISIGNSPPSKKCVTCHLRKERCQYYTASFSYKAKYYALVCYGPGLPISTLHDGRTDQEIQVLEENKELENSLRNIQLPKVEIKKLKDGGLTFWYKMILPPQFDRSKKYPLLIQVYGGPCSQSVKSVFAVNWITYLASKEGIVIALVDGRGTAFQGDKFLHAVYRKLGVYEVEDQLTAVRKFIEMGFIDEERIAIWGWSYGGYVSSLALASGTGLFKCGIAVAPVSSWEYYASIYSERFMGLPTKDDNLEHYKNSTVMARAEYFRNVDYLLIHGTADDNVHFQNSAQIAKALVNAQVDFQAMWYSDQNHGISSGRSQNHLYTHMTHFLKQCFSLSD
Outline: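 KD values come from a 1:1 kinetic fit of single-cycle SPR data: 8 peptide concentrations, 25 °C, 30 μL/min, HEPES-buffered saline pH 7.6 with 2% DMSO. Targets were His/Avi-tagged human (26-760) or mouse (26-761) FAP, amine-coupled to CM5 or held on a CAPture chip.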

[2] = molecular target: T2, human FAP (Homo sapiens, UniProt Q12884); assay: Enzymatic FAP competition assay (Z-Gly-Pro-AMC fluorescence), human FAP; assay type: biochemical; conditions: read-out: h. FAP, Enz., IC50
T2 construct: the biotinylated His, Avi tag, human FAP (26-760, FAP-H82Q6); His; Avi tag (biotinylated); purchased AcroBiosystems FAP-H82Q6
T2 sequence (Q12884 26-760): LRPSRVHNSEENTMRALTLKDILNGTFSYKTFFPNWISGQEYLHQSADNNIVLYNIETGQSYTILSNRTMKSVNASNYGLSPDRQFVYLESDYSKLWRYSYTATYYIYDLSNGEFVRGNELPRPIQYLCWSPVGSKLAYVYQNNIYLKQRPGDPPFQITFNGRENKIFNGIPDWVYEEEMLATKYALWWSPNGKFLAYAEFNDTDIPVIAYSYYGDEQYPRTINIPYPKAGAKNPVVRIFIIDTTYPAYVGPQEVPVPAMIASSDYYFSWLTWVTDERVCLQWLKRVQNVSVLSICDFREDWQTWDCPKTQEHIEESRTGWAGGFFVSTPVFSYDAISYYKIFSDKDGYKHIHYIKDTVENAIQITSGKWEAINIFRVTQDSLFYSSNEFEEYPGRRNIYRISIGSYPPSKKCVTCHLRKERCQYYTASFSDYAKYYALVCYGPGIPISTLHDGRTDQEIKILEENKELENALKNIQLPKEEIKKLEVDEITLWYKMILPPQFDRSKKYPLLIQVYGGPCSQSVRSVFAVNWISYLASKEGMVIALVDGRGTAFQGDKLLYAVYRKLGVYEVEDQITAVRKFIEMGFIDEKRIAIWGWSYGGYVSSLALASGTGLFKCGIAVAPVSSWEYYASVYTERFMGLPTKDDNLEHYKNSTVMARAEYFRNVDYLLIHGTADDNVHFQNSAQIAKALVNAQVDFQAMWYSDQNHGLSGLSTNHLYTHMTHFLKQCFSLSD
Outline: (§1)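 IC50 values come from curve fitting of duplicate % inhibition data on AMC fluorescence (ex 380, em 460 nm) after 4 h at 22-24° C with 50 μM Z-Gly-Pro-AMC. Beforehand, peptides up to 1 μM (14 levels) sat 24 h with 0.01 nM human (26-760) or mouse (26-761) tagged FAP in phosphate buffer pH 7.5, NaCl, Tween20, 1% DMSO.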

[3] = molecular target: T1, mouse FAP; assay: Enzymatic FAP competition assay (Z-Gly-Pro-AMC fluorescence), mouse FAP; assay type: biochemical; conditions: read-out: m. FAP, Enz., IC50
Outline: as §1

Compound	Kd [1]	IC50 [2]	IC50 [3]
CCCCC[C@@H]1NC(=O)[C@H](Cc2ccc(O)cc2)NC(=O)[C@H](Cc2ccccc2)N(C)C(=O)CNC(=O)CNC(=O)[C@H]2CCCN2C(=O)[C@H](CC(N)=O)NC(=O)[C@H](Cc2ccc(O)cc2)NC(=O)CNC(=O)[C@H](Cc2c[nH]c3ccccc23)NC1=O [Example A58, Gly-Gly-NMePhe-Tyr-Ahp-Trp-Gly-Tyr-Asn-D-Pro] (cyclo([Ahp(2)]WGYN[dP]GG[NMeF]Y))	75 nM	19 nM	46 nM
CCCCC[C@@H]1NC(=O)[C@H](Cc2ccc(OCCN)cc2)NC(=O)[C@H](Cc2ccccc2)N(C)C(=O)CNC(=O)CNC(=O)[C@H]2CCCN2C(=O)[C@H](CC(=O)O)NC(=O)[C@H](Cc2ccc(O)cc2)NC(=O)CNC(=O)[C@H](Cc2c[nH]c3ccccc23)NC1=O [Example A59, Gly-Gly-NMePhe-F(4OEtNH2)-Ahp-Trp-Gly-Tyr-Asp-D-Pro, TFA salt] (cyclo([AEF][Ahp(2)]WGYD[dP]GG[NMeF]))	0.38 nM	0.136 nM	0.49 nM
CCCCC[C@@H]1NC(=O)[C@H](Cc2ccc(O)cc2)NC(=O)[C@H](CC2CCC2)NC(=O)CNC(=O)CNC(=O)[C@H]2CCCN2C(=O)[C@H](CC(=O)O)NC(=O)[C@H](Cc2ccc(O)cc2)NC(=O)CNC(=O)[C@H](Cc2c[nH]c3ccccc23)NC1=O [Example A60, Gly-Gly-cBuA-Tyr-Ahp-Trp-Gly-Tyr-Asp-D-Pro] (cyclo([Ahp(2)]WGYD[dP]GG[Cba]Y))	0.05 nM	0.041 nM	0.127 nM
CCCCC[C@@H]1NC(=O)[C@H](Cc2ccc(O)cc2)NC(=O)[C@H](Cc2ccccc2)N(C)C(=O)CNC(=O)CNC(=O)[C@H]2CCCN2C(=O)[C@H](CC(=O)O)NC(=O)[C@H](Cc2ccc(O)cc2)NC(=O)CNC(=O)[C@H](Cc2c[nH]c3c(OC)cccc23)NC1=O [Example A61, Gly-Gly-NMePhe-Tyr-Ahp-W(7OMe)-Gly-Tyr-Asp-D-Pro] (cyclo([Ahp(2)][Trp(7-OMe)]GYD[dP]GG[NMeF]Y))	0.162 nM	0.065 nM	0.3 nM
CCCCC[C@@H]1NC(=O)[C@H](Cc2ccc(O)cc2)NC(=O)[C@H](CC2CCC2)N(C)C(=O)CNC(=O)CNC(=O)[C@H]2CCCN2C(=O)[C@H](CC(=O)O)NC(=O)[C@H](Cc2ccc(O)cc2)NC(=O)CNC(=O)[C@H](Cc2c[nH]c3ccccc23)NC1=O [Example A62, Gly-Gly-NMecBuA-Tyr-Ahp-Trp-Gly-Tyr-Asp-D-Pro] (cyclo([Ahp(2)]WGYD[dP]GG[NMeCba]Y))	0.32 nM	0.063 nM	0.31 nM
CCCCC[C@@H]1NC(=O)[C@H](Cc2ccc(O)cc2)NC(=O)[C@H](Cc2ccccc2)N(C)C(=O)CNC(=O)CNC(=O)[C@H]2COCCN2C(=O)[C@H](CC(=O)O)NC(=O)[C@H](Cc2ccc(O)cc2)NC(=O)CNC(=O)[C@H](Cc2c[nH]c3ccccc23)NC1=O [Example A63, Gly-Gly-NMePhe-Tyr-Ahp-Trp-Gly-Tyr-Asp-Mor(3R-COOH)] (cyclo([Ahp(2)]WGYD[X10]GG[NMeF]Y))	20 nM	15 nM	55 nM
CCCCC[C@@H]1NC(=O)[C@H](Cc2ccc(O)cc2)NC(=O)[C@H](Cc2ccccc2)N(C)C(=O)CNC(=O)CNC(=O)[C@H]2CCCN2C(=O)[C@H](CC(=O)O)NC(=O)[C@H](Cc2ccc(O)cc2)NC(=O)[C@@H](C)NC(=O)[C@H](Cc2c[nH]c3ccccc23)NC1=O [Example A64, Gly-Gly-NMePhe-Tyr-Ahp-Trp-D-Ala-Tyr-Asp-D-Pro] (cyclo([Ahp(2)]W[dA]YD[dP]GG[NMeF]Y))	3.6 nM	2.4 nM	4.1 nM
CCCCC[C@@H]1NC(=O)[C@H](Cc2ccc(O)cc2)NC(=O)[C@H](Cc2ccccc2)N(C)C(=O)CNC(=O)CNC(=O)[C@@H](C)N(C)C(=O)[C@H](CC(=O)O)NC(=O)[C@H](Cc2ccc(O)cc2)NC(=O)CNC(=O)[C@H](Cc2c[nH]c3ccccc23)NC1=O [Example A65, Gly-Gly-NMePhe-Tyr-Ahp-Trp-Gly-Tyr-Asp-D-NMeA] (cyclo([Ahp(2)]WGYD[dNMeA]GG[NMeF]Y))	1.8 nM	0.34 nM	2.8 nM

The next lines start with the values.

Kd [1]	IC50 [2]	IC50 [3]	Compound
0.46 nM	0.27 nM	1.2 nM	CCCCC[C@@H]1NC(=O)[C@H](Cc2ccc(O)cc2)NC(=O)[C@H](Cc2ccccc2)N(C)C(=O)CNC(=O)CNC(=O)[C@H]2CCCCN2C(=O)[C@H](CC(=O)O)NC(=O)[C@H](Cc2ccc(O)cc2)NC(=O)CNC(=O)[C@H](Cc2c[nH]c3ccccc23)NC1=O [Example A66, Gly-Gly-NMePhe-Tyr-Ahp-Trp-Gly-Tyr-Asp-Pi(2R-COOH)] (cyclo([Ahp(2)]WGYD[dPip]GG[NMeF]Y))
208 nM	76 nM	252 nM	CCCCC[C@@H]1NC(=O)[C@H](Cc2ccc(O)cc2)NC(=O)[C@H](Cc2ccccc2)N(C)C(=O)[C@@H](CO)NC(=O)CNC(=O)[C@H]2CCCN2C(=O)[C@H](CC(=O)O)NC(=O)[C@H](Cc2ccc(O)cc2)NC(=O)CNC(=O)[C@H](Cc2c[nH]c3ccccc23)NC1=O [Example A67, Gly-D-Ser-NMePhe-Tyr-Ahp-Trp-Gly-Tyr-Asp-D-Pro] (cyclo([Ahp(2)]WGYD[dP]G[dS][NMeF]Y))
35 nM	12 nM	80 nM	CCCCC[C@@H]1NC(=O)[C@H](Cc2ccc(O)cc2)NC(=O)[C@H](Cc2ccccc2)N(C)C(=O)CNC(=O)CNC(=O)CN(C)C(=O)[C@H](CC(=O)O)NC(=O)[C@H](Cc2ccc(O)cc2)NC(=O)CNC(=O)[C@H](Cc2c[nH]c3ccccc23)NC1=O [Example A68, Gly-Gly-NMePhe-Tyr-Ahp-Trp-Gly-Tyr-Asp-NMeGly] (cyclo([Ahp(2)]WGYD[Sar]GG[NMeF]Y))
0.222 nM	0.121 nM	0.47 nM	CCCCC[C@@H]1NC(=O)[C@H](Cc2ccc(O)cc2)NC(=O)[C@H](Cc2ccccc2)N(C)C(=O)CNC(=O)[C@@H](CO)NC(=O)[C@H]2CCCN2C(=O)[C@H](CC(=O)O)NC(=O)[C@H](Cc2ccc(O)cc2)NC(=O)CNC(=O)[C@H](Cc2c[nH]c3ccccc23)NC1=O [Example A69, D-Ser-Gly-NMePhe-Tyr-Ahp-Trp-Gly-Tyr-Asp-D-Pro] (cyclo([Ahp(2)]WGYD[dP][dS]G[NMeF]Y))
0.104 nM	0.036 nM	0.116 nM	CCCCC[C@@H]1NC(=O)[C@H](Cc2ccc(O)cc2)NC(=O)[C@H](Cc2ccccc2)N(C)C(=O)CNC(=O)CNC(=O)[C@@]2(C)CCCN2C(=O)[C@H](CC(=O)O)NC(=O)[C@H](Cc2ccc(O)cc2)NC(=O)CNC(=O)[C@H](Cc2c[nH]c3ccccc23)NC1=O [Example A70, Gly-Gly-NMePhe-Tyr-Ahp-Trp-Gly-Tyr-Asp-D-aMeP] (cyclo([Ahp(2)]WGYD[d(αMeP)]GG[NMeF]Y))
